The source of these data is US12280045B2, “Antitumor agent and antitumor effect potentiator” (TAIHO PHARMACEUTICAL CO., LTD., priority 2017, dated 2025).

For data set [1], the system named is mouse MC38 tumor model. The data set can be described thus: Dose finding of compound 1 in mouse MC38 tumor model. Type of data set: in vivo. The conditions noted are these: orally administered once daily for 21 days. As to the method:
An experiment was conducted with mouse MC38 tumor model. Tumor cells were cultured in vitro and transplanted subcutaneously into male mice, six weeks of age, in the right chest region, followed by daily administration of compound 1 and a control antibody. […] This dose (oral continuous administration of 50 mg/kg for 21 days, q.d.) is equivalent to the recommended dose of compound 1 in humans when administered alone.

Data set [2] in a line: Percentage of body weight change in MC38 colon cancer cell transplant model. The class given is in vivo, mouse. As to the method: (§1) An electronic balance designed for animals was used for body weight measurement. A percentage of body weight change (BWCn) on day n was calculated from the body weight on day 1 (BW1) and the body weight (BWn) on day n using the following formula. Percentage of body weight change BWCn (%)=(BWn−BW1)/BW1×100
(§2) A methanesulfonic acid salt of compound 1 was pulverized with an agate mortar, and was prepared into a solution having a concentration of 5 mg/mL as its free form, using a solvent. The compound was then dissolved by sonication to prepare a 50 mg/kg dosing solution. The dosing solution was diluted with solvent to prepare a 25 mg/kg dosing solution, and a 12.5 mg/kg dosing solution. These dosing solutions were orally administered as compound 1, once daily in a dose of 12.5 mg/kg/day, 25 mg/kg/day, or 50 mg/kg/day, continuously for 21 days.
(§3) The anti-mouse PD-1 antibody was intraperitoneally administered in a dose of 0.05 mg/body on the first day (Day 1) of administration and on the 8th day since administration was started.
(§4) The medicinal agents shown in Table 1 were administered in the schedules, doses, and dosage forms shown in Table 1 (administered group No. 1 to No. 8).

Data set [3] has as its system mouse breast cancer cell line EMT6. The data set can be described thus: Antitumor effect (tumor volume) in EMT6 breast cancer cell transplant model. Type of data set: in vivo. As to the method: EMT6, a mouse breast cancer cell line, was obtained from American Type Culture Collection (ATCC). EMT6 was cultured in Waymouth's MB752/1 medium containing […]. EMT6 was subcultured in a 37° C., 5% CO2 incubator in a 1:3 to 1:5 ratio, one to two times a week.
(§5) A cell suspension as a suspension of EMT6 cells in a 1:1 mixture of PBS and extracellular matrix component Matrigel was prepared, and the suspension, containing 1×10^4 cells/0.1 mL, was transplanted subcutaneously into a BALB/c mouse (Charles River Laboratories Japan Inc.), six weeks of age, in an area around the right last rib.
(§6) The tumor size was measured by measuring the major axis and minor axis of the tumor with a digimatic caliper, and TV was calculated using the following formula. TV (mm^3)=major axis (mm)×minor axis (mm)×minor axis (mm)/2
The animals were divided into groups of 15 using a stratified random grouping method, using TV as an index. The day the grouping was made (N=15) was designated as Day 1.
A methanesulfonic acid salt of compound 1 was pulverized with an agate mortar, and was prepared into a solution having a concentration of 4.2 mg/mL as its free form, using a solvent. The compound was then dissolved by sonication to prepare a 42 mg/kg dosing solution. The dosing solution was orally administered as compound 1, once daily in a dose of 42 mg/kg/day, continuously for 14 days. […]

For data set [4], the system named is mouse colon cancer cell line MC38. Nature of the data set: Antitumor effect (tumor volume) in MC38 colon cancer cell transplant model. Type of data set: in vivo. The conditions noted are these: for TV, DAY 22 MEAN ± S.E.: N=10. As to the method:
MC38, a mouse colon cancer cell line, was provided by Dr. Yoshihiro Hayakawa (University of Toyama, Toyama, Japan). MC38 was cultured in RPMI 1640 medium containing 10% fetal bovine serum (FBS). MC38 was subcultured in a 37° C., 5% CO2 incubator in a 1:3 to 1:5 ratio, one to two times a week.
A cell suspension as a suspension of MC38 cells in a 1:1 mixture of phosphate-buffered saline (PBS) and extracellular matrix component Matrigel was prepared, and the suspension, containing 1×10^6 cells/0.1 mL, was transplanted subcutaneously into a C57BL/6NCrl mouse (Charles River Laboratories Japan Inc.), six weeks of age, in an area around the right last rib.
as §6
The animals were divided into groups of 10 using a stratified random grouping method, using TV as an index. The day the grouping was made (N=10) was designated as Day 1.
as §2, §3, §4
A Dunnett's test (significance level 0.05) was conducted to analyze Day 22 TV for each group.

Data set [5] concerns tumor-associated macrophage. The data set can be described thus: Fraction of tumor-associated macrophage in TIL, MC38 colon cancer cell transplant model (flow cytometry). Type of data set: in vivo, mouse. As to the method: MC38, a mouse colon cancer cell line, was provided by Dr. Yoshihiro Hayakawa (University of Toyama, Toyama, Japan). MC38 was cultured in RPMI 1640 medium containing 10% FBS. MC38 was subcultured in a 37° C., 5% CO2 incubator in a 1:3 to 1:5 ratio, one to two times a week.
A cell suspension of MC38 cells containing 2×10^6 cells/0.1 mL, was transplanted subcutaneously into a C57BL/6NJJcl mouse (CLEA Japan, Inc.), six weeks of age, in an area around the right last rib.
The tumor size was measured by measuring the major axis and minor axis of the tumor with a digimatic caliper, and TV was calculated using the following formula. TV (mm^3)=major axis (mm)×minor axis (mm)×minor axis (mm)/2 […]
The tumor was collected on the 10th day (Day 10) since administration was started, and a tumor suspension was prepared using a digestive enzyme treatment method. […] The isolated TILs were reacted with fluorescence-labeled anti-CD45 antibody, anti-CD90.2 (T cell marker) antibody, anti-CD11b (myeloid leukocyte marker) antibody, anti-Ly-6G (granulocytic bone marrow-derived suppressor cell marker) antibody, anti-Ly-6C (monocytic bone marrow-derived suppressor cell marker) antibody, and anti-F4/80 (macrophage marker) antibody, and the fraction of tumor-associated macrophage in TIL was calculated by fluorescence flow cytometry. […]
Background: Flow cytometry measures light scatter and fluorescence of single cells or particles in a stream.

The subject of data set [6] is tumor-associated macrophage. The data set can be described thus: Fraction of tumor-associated macrophage in TIL, EMT6 breast cancer cell transplant model (flow cytometry). The class given is in vivo, mouse. As to the method:
EMT6, a mouse breast cancer cell line, was obtained from ATCC. EMT6 was cultured in Waymouth's MB752/1 medium containing 15% FBS. EMT6 was subcultured in a 37° C., 5% CO2 incubator in a 1:3 to 1:5 ratio, one to two times a week.
as §5
After 4 days from transplantation, the animals were divided into groups of 5 using a stratified random grouping method, using body weight as an index. The day the grouping was made (N=5) was designated as Day 1.
A methanesulfonic acid salt of compound 1 was pulverized with an agate mortar, and was prepared into a solution having a concentration of 4.2 mg/mL as its free form, using a solvent. […]
The tumor was collected on the 7th day (Day 7) since administration was started, and a tumor suspension was prepared using a digestive enzyme treatment method. […] The isolated TILs were reacted with fluorescence-labeled anti-CD45 antibody, anti-CD90.2 antibody, anti-CD11b antibody, anti-Ly-6G antibody, anti-Ly-6C antibody, and anti-F4/80 antibody, and the fraction of tumor-associated macrophage in TIL was calculated by fluorescence flow cytometry. […]

Data set [7] can be described thus: Percentage of body weight change in EMT6 breast cancer cell transplant model. The conditions noted are these: Compound 1 42 mg/kg p.o. q.d. Day 1-14 / PBS i.p. The class given is in vivo, mouse. The method, then:
as §1
An electronic balance designed for animals was used for body weight measurement. A percentage of body weight change (BWCn) on day n was calculated in the same manner as in Example 1.
A methanesulfonic acid salt of compound 1 was pulverized with an agate mortar, and was prepared into a solution having a concentration of 4.2 mg/mL as its free form, using a solvent. The compound was then dissolved by sonication to prepare a 42 mg/kg dosing solution. The dosing solution was orally administered as compound 1, once daily in a dose of 42 mg/kg/day, continuously for 14 days.
The anti-mouse PD-1 antibody was intraperitoneally administered in a dose of 0.1 mg/body on the first day (Day 1) of administration, and on the 4th day (Day 4), the 8th day (Day 8), and the 11th day (Day 11) since administration was started.
The anti-mouse CTLA-4 antibody was intraperitoneally administered in a dose of 0.5 mg/body on the first day (Day 1) of administration, and after 4 days (Day 4), 8 days (Day 8), and 11 days (Day 11) from administration. […]

The structures appear in SMILES notation.

Regarding `CNC(=O)c1cc2c(Oc3ccc(NC(=S)NC(=O)Cc4ccccc4)cc3F)ccnc2cc1OC` [Compound 1, 4-(2-fluoro-4-(3-(2-phenylacetyl)thioureido)phenoxy)-7-methoxy-N-methylquinoline-6-carboxamide], the “preferred minimum dose that produces the maximum efficacy in the mouse” value in data set [1] was determined as 50 mg/kg. For the same molecule, the “BWC22 MEAN ± S.E.” value is 6.1 ± 0.7% in data set [2] (Compound 1 12.5 mg/kg p.o. q.d. Day 1-21 / PBS i.p.), 5.0 ± 0.9% in data set [2] (Compound 1 25 mg/kg p.o. q.d. Day 1-21 / PBS i.p.) and −0.3 ± 0.9% in data set [2] (Compound 1 50 mg/kg p.o. q.d. Day 1-21 / PBS i.p.). The “TV, DAY 15 MEAN ± S.E.” value in data set [3] (Compound 1 42 mg/kg p.o. q.d. Day 1-14 / PBS i.p. Day 1, 4, 8, 11, N=15) is reported as 312 ± 29 mm^3. Besides, in data set [3] (Dunnett's test, significance level 0.05, doses as in Table 3), the “Day 15 TV versus control group (No. 1), result in words” value is recorded as “significantly smaller TVs than control group”. Further, the “TV, DAY 22 MEAN ± S.E.” value turned out to be 1007 ± 161 mm^3 in data set [4] (Compound 1 12.5 mg/kg p.o. q.d. Day 1-21 / PBS i.p. Day 1, 8); 763 ± 50 mm^3 in data set [4] (Compound 1 25 mg/kg p.o. q.d. Day 1-21 / PBS i.p. Day 1, 8); 437 ± 62 mm^3 in data set [4] (Compound 1 50 mg/kg p.o. q.d. Day 1-21 / PBS i.p. Day 1, 8). The “Day 22 TV versus control group (No. 1), result in words” value in data set [4] (Dunnett's test, significance level 0.05, doses as in Table 1) is listed as “significantly smaller TVs than control group”. For the same molecule, the “Fraction of tumor-associated macrophage MEAN ± S.E.” value in data set [5] (Compound 1 25 mg/kg p.o. q.d. Day 1-9, tumor collected Day 10, N=5) was 8.2 ± 2.3%; in data set [6] (Compound 1 42 mg/kg p.o. q.d. Day 1-6, tumor collected Day 7, N=5) it was 20.3 ± 4.8%. For the same molecule, the “fraction of tumor-associated macrophage versus control group (No. 1), result in words” value was “significantly smaller fractions of tumor-associated macrophage than control group” in data set [5] (Dunnett's test, significance level 0.05, doses as in Table 2) and “significantly smaller fraction of tumor-associated macrophage than control group” in data set [6] (Dunnett's test, significance level 0.05, doses as in Table 4). For the same molecule, the “BWC15 MEAN ± S.E.” value in data set [7] amounted to 3.2 ± 1.0%.
